Experiment [1] concerns the target human vasopressin V1a receptor (Homo sapiens, UniProt P37288). Description: Receptor binding study, [3H]AVP displacement on CHO cell membranes, human V1a. The method, boiled down: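 Membrane binding in 50 mM Tris-HCl pH 7.4 with MgCl2 and 0.1% BSA, incubated 1 h at 25° C. Bound ligand collected by rapid filtration on glass fiber filters, washed with ice-cold buffer, and counted for radioactivity. Nonspecific binding defined with 1 μM unlabeled AVP.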

The target in experiment [2] is human vasopressin V2 receptor (Homo sapiens, UniProt P30518). Description: Receptor binding study, [3H]AVP displacement on CHO cell membranes, human V2. The essentials:
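Displacement format: test compound over a concentration range competes with constant [3H]AVP (0.5 nM to 1.0 nM) for human V2 sites on CHO membranes, one hour at room temperature (25 °C), Tris-HCl pH 7.4 buffer. Filtration then radioactivity counting; 1 μM non-radioactive AVP gives nonspecific binding.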

[3] abbreviates: [3H]AVP displacement, CHO cell membrane, 25° C., one hour, read-out: Human V1a Ki.
Setting [4] is: [3H]AVP displacement, CHO cell membrane, 25° C., one hour, read-out: Human V2 Ki.

For orientation: Ki means a dissociation constant, usually derived from enzyme kinetics or from competition with a known ligand.

Where two headings read alike, the source gives them in different places.

Chain of human vasopressin V2 receptor (P30518 whole entry): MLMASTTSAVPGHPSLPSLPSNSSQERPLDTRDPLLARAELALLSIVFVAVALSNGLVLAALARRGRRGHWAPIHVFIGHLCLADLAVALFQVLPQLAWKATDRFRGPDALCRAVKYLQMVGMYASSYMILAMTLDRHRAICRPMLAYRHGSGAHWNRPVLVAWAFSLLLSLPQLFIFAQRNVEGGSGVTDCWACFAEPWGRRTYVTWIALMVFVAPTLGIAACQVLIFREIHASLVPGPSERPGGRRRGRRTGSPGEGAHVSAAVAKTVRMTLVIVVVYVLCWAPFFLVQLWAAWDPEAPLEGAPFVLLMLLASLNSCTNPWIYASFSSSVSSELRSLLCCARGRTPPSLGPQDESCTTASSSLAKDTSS
Chain of human vasopressin V1a receptor (P37288 whole entry): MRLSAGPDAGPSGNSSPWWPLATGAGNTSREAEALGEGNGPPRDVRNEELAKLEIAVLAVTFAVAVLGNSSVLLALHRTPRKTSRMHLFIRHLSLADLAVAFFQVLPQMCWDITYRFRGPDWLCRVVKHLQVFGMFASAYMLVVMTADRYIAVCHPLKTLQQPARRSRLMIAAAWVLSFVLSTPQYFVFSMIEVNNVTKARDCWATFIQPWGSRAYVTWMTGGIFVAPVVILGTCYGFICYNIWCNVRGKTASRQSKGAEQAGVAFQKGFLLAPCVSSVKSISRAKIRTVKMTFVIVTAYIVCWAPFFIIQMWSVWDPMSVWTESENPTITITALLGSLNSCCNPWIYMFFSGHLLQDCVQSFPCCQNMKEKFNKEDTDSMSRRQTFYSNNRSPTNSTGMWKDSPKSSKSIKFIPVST

For `CCCN(C)CCCOc1cc(C(=O)N2CC[C@H](C)Nc3ccccc32)ccc1-c1ccc(OC)cc1` [Example 131, N-[3-[[4′-methoxy-4-[[(4S)-4-methyl-2,3,4,5-tetrahydro-1H-1,5-benzodiazepin-1-yl]carbonyl][1,1′-biphenyl]-2-yl]oxy]propyl]-N-methyl-N-propylamine], the figures for the Ki in experiment [1] (setting [3]) and in experiment [2] (setting [4]) were 0.26 nM and 83 nM, respectively.
The matching figures for `C[C@H]1CCN(C(=O)c2ccc(-c3ccc4[nH]ccc4c3)c(OCCCN(C)C)c2)c2ccccc2N1` [Example 78, N-[3-[2-(1H-indol-5-yl)-5-[[(4S)-4-methyl-2,3,4,5-tetrahydro-1H-1,5-benzodiazepin-1-yl]carbonyl]phenoxy]propyl]-N,N-dimethylamine]: 0.11 nM and 12 nM.
The matching figures for `CCCN1CCN(CCCOc2cc(C(=O)N3CC[C@H](C)Nc4ccccc43)ccc2-c2ccc3[nH]ccc3c2)CC1` [Example 113, (4S)-1-[4-(1H-indol-5-yl)-3-[3-(4-propyl-1-piperazinyl)propoxy]benzoyl]-4-methyl-2,3,4,5-tetrahydro-1H-1,5-benzodiazepine]: 0.26 nM and 5 nM.
For `Cc1ccc2c(c1)NC(C)CCN2C(=O)c1ccc(-c2ccc3[nH]ccc3c2)c(OCCN2CCOCC2)c1` (centres unmarked) [Example 104, 5-[(4,7-dimethyl-2,3,4,5-tetrahydro-1H-1,5-benzodiazepin-1-yl]carbonyl]-2-(1H-indol-5-yl)phenyl 2-(4-morpholinyl)ethyl ether] the same measures were 0.35 nM and 3.5 nM.
Regarding `CCCCN1CCN(CCCOc2cc(C(=O)N3CC[C@H](C)Nc4ccccc43)ccc2-c2ccc3[nH]ccc3c2)CC1` [Example 122, (4S)-1-[3-[3-(4-butyl-1-piperazinyl)propoxy]-4-(1H-indol-5-yl)benzoyl]-4-methyl-2,3,4,5-tetrahydro-1H-1,5-benzodiazepine], the inhibition constant (Ki) in experiment [1] (setting [3]) amounted to 0.21 nM; in experiment [2] (setting [4]) it was 5.1 nM.
For `CCCN(C)CCCOC(=O)c1cc(C(=O)N2CC[C@H](C)Nc3ccccc32)ccc1-c1ccc2[nH]ccc2c1` [Example 132, 3-[methyl(propyl)amino]propyl 2-(1H-indol-5-yl)-5-[[(4S)-4-methyl-2,3,4,5-tetrahydro-1H-1,5-benzodiazepin-1-yl]carbonyl]benzoate] the same measures were 0.25 nM and 172 nM.
In the case of `CC1CCN(C(=O)c2ccc(-c3ccc4[nH]ccc4c3)c(OCCCN(C)C)c2)c2ccccc2N1` (centres unmarked) [Example 42, 3-[2-(1H-indol-5-yl)-5-[(4-methyl-2,3,4,5-tetrahydro-1H-1,5-benzodiazepin-1-yl)carbonyl]phenoxy]-N,N-dimethyl-1-propaneamine], the values for the Ki in experiment [1] (setting [3]) and in experiment [2] (setting [4]) were 0.19 nM and 34 nM, respectively.
The matching figures for `CNc1ccc(-c2ccc(C(=O)N3CC[C@H](C)Nc4ccccc43)cc2OCCCN2C(=O)CNC2=O)cc1` [Example 106, 3-[3-[[4′-(methylamino)-4-[[(4S)-4-methyl-2,3,4,5-tetrahydro-1H-1,5-benzodiazepin-1-yl]carbonyl][1,1′-biphenyl]-2-yl]oxy]propyl]-2,4-imidazolidinedion]: 0.14 nM and 2 nM.
Turning to `C[C@H]1CCN(C(=O)c2ccc(-c3ccc4[nH]ccc4c3)c(OCCCN3CCC(N)CC3)c2)c2ccccc2N1` [Example 141, 1-[3-[2-(1H-indol-5-yl)-5-[[(4S)-4-methyl-2,3,4,5-tetrahydro-1H-1,5-benzodiazepin-1-yl]carbonyl]phenoxy]propyl]-4-piperidinylamine], the figures for the Ki in experiment [1] (setting [3]) and in experiment [2] (setting [4]) were 0.45 nM and 10 nM, respectively.
On to `CCCCN(CC)CCCOc1cc(C(=O)N2CC[C@H](C)Nc3ccccc32)ccc1-c1ccc2[nH]ccc2c1` [Example 124, N-ethyl-N-[3-[2-(1H-indol-5-yl)-5-[[(4S)-4-methyl-2,3,4,5-tetrahydro-1H-1,5-benzodiazepin-1-yl]carbonyl]phenoxy]propyl]-1-butaneamine], for which the Ki was 0.37 nM in experiment [1] (setting [3]) and 20 nM in experiment [2] (setting [4]).
For `C[C@H]1CCN(C(=O)c2ccc(-c3ccc4[nH]ccc4c3)c(OCCCCN3CCOCC3)c2)c2ccccc2N1` [Example 67, (4S)-1-[4-(1H-indol-5-yl)-3-[4-(4-morpholinyl)butoxy]benzoyl]-4-methyl-2,3,4,5-tetrahydro-1H-1,5-benzodiazepine] the same measures were 0.19 nM and 8.7 nM.
The matching figures for `CCCN(C)CCCOc1cc(C(=O)N2CC[C@H](C)Nc3ccccc32)ccc1-c1ccc(N)cc1` [Example 164, 2′-[3-[methyl(propyl)amino]propoxy]-4′-[[(4S)-4-methyl-2,3,4,5-tetrahydro-1H-1,5-benzodiazepin-1-yl]carbonyl][1,1′-biphenyl]-4-amine]: 0.15 nM and 477 nM.
For `C[C@H]1CCN(C(=O)c2ccc(-c3ccc4[nH]ccc4c3)c(OCCCN3CCCN(C)CC3)c2)c2ccccc2N1` [Example 109, (4S)-1-[4-(1H-indol-5-yl)-3-[3-(4-methyl-1,4-diazepane-1-yl)propoxy]benzoyl]-4-methyl-2,3,4,5-tetrahydro-1H-1,5-benzodiazepine], the figures for the Ki in experiment [1] (setting [3]) and in experiment [2] (setting [4]) were 0.13 nM and 7.1 nM, respectively.
For `C[C@H]1CCN(C(=O)c2ccc(-c3ccc4[nH]ccc4c3)c(C(=O)N3CCN(C)CC3)c2)c2ccccc2N1` [Example 102, (4S)-1-[4-(1H-indol-5-yl)-3-[(4-methyl-1-piperazinyl)carbonyl]benzoyl]-4-methyl-2,3,4,5-tetrahydro-1H-1,5-benzodiazepine], the Ki in experiment [1] (setting [3]) amounted to 0.25 nM; in experiment [2] (setting [4]) it was 61 nM.
The matching figures for `CC1CCN(C(=O)c2ccc(-c3ccc4[nH]ccc4c3)c(OCCCCCN)c2)c2ccccc2N1` (centres unmarked) [Example 37, 5-[2-(1H-indol-5-yl)-5-[(4-methyl-2,3,4,5-tetrahydro-1H-1,5-benzodiazepin-1-yl)carbonyl]phenoxy]-1-pentaneamine]: 0.24 nM and 4.3 nM.
For `CNc1ccc(-c2ccc(C(=O)N3CC[C@H](C)Nc4ccccc43)cc2OCCN2CCOCC2)cc1` [Example 74, N-methyl-4′-[[(4S)-4-methyl-2,3,4,5-tetrahydro-1H-1,5-benzodiazepin-1-yl]carbonyl]-2′-[2-(4-morpholinyl)ethoxy][1,1′-biphenyl]-4-amine] the same measures were 0.24 nM and 6.1 nM.
For `C[C@@H]1CCN(C(=O)c2ccc(-c3ccc4[nH]ccc4c3)c(OCCN3CCOCC3)c2)c2ccccc2N1` [Example 66, (4R)-1-[4-(1H-indol-5-yl)-3-[2-(4-morpholinyl)ethoxy]benzoyl]-4-methyl-2,3,4,5-tetrahydro-1H-1,5-benzodiazepine] the same measures were 0.41 nM and 3.6 nM.
`CC1CCN(C(=O)c2ccc(-c3ccc4[nH]ccc4c3)c(OCCCCN)c2)c2ccccc2N1` (centres unmarked) [Example 36, 4-[2-(1H-indol-5-yl)-5-[(4-methyl-2,3,4,5-tetrahydro-1H-1,5-benzodiazepin-1-yl)carbonyl]phenoxy]-1-butaneamine]: the Ki in experiment [1] (setting [3]) amounted to 0.23 nM; in experiment [2] (setting [4]) it was 11 nM.
The matching figures for `COc1cc(C(=O)N2CC[C@H](C)Nc3ccccc32)ccc1-c1ccc2[nH]ccc2c1` [Example 47, (4S)-1-[4-(1H-indol-5-yl)-3-methoxybenzoyl]-4-methyl-2,3,4,5-tetrahydro-1H-1,5-benzodiazepine]: 0.39 nM and 1.2 nM.
As to `CCCN1CCN(CCOc2cc(C(=O)N3CC[C@H](C)Nc4ccccc43)ccc2-c2ccc(NCC)cc2)CC1` [Example 160, N-ethyl-4′-[[(4S)-4-methyl-2,3-4,5-tetrahydro-1H-1,5-benzodiazepin-1-yl]carbonyl]-2′-[2-(4-propyl-1-piperazinyl)ethoxy][1,1′-biphenyl]-4-amine], the Ki is 0.2 nM in experiment [1] (setting [3]) and 22 nM in experiment [2] (setting [4]).
Take `CCCN(C)CCCCOc1cc(C(=O)N2CC[C@H](C)Nc3ccccc32)ccc1-c1ccc2[nH]ccc2c1` [Example 117, N-[4-[2-(1H-indol-5-yl)-5-[[(4S)-4-methyl-2,3,4,5-tetrahydro-1H-1,5-benzodiazepin-1-yl]carbonyl]phenoxy]butyl]-N-methyl-N-propylamine]: the Ki in experiment [1] was determined as 0.21 nM; in experiment [2] it was 12 nM.
As to `COc1cc(C(=O)N2CCC(C)Nc3ccccc32)ccc1-c1ccc2[nH]ccc2c1` (centres unmarked) [Example 1, 1-[4-(1H-indol-5-yl)-3-methoxybenzoyl]-4-methyl-2,3,4,5-tetrahydro-1H-1,5-benzodiazepine], the Ki in experiment [1] (setting [3]) was 0.39 nM; in experiment [2] (setting [4]) it was 1.7 nM.
For `CC(C)N1CCN(CCCOc2cc(C(=O)N3CC[C@H](C)Nc4ccccc43)ccc2-c2ccc3[nH]ccc3c2)CC1` [Example 99, (4S)-1-[4-(1H-indol-5-yl)-3-[3-(4-isopropyl-1-piperazinyl)propoxy]benzoyl]-4-methyl-2,3,4,5-tetrahydro-1H-1,5-benzodiazepine] the same measures were 0.3 nM and 3.4 nM.
With `CC(=O)Nc1cc(C(=O)N2CCC(C(C)C)Nc3ccccc32)ccc1-c1ccc2[nH]ccc2c1` (centres unmarked) [Example 7, N-[2-(1H-indol-5-yl)-5-[(4-isopropyl-2,3,4,5-tetrahydro-1H-1,5-benzodiazepin-1-yl)carbonyl]phenyl]acetamide], the values for the Ki in experiment [1] (setting [3]) and in experiment [2] (setting [4]) were 0.38 nM and 15 nM, respectively.
Take `CC1CCN(C(=O)c2ccc(-c3ccc4[nH]ccc4c3)c(OCCCNC(=O)CN)c2)c2ccccc2N1` (centres unmarked) [Example 169, 2-amino-N-[3-[2-(1H-indol-5-yl)-5-[(4-methyl-2,3,4,5-tetrahydro-1H-1,5-benzodiazepin-1-yl]carbonyl]phenoxy]propyl]acetamide]: the Ki was 0.13 nM in experiment [1] (setting [3]) and 4.9 nM in experiment [2] (setting [4]).

The values are drawn from US20080076760A1, “2,3,4,5-TETRAHYDRO-1H-1,5-BENZODIAZEPINE DERIVATIVE AND MEDICINAL COMPOSITION” (priority 2004, published 2008).
